According to US9067922B2, “Chemical compounds” (Pfizer Limited, priority 2013, dated 2015):

Biological target: URAT-1 transporter (Homo sapiens (Human), UniProt Q96S37)
Assay: URAT-1 inhibitor activity: [14C]-uric acid uptake in CHO-URAT1(L)GFP#8 (CHO#8) cells, scintillation proximity
Type: cell-based
Conditions: inhibition of [14C]-uric acid (30 nM) uptake into CHO#8 cells; compound 0 to 10 μM; 4 parameter logistic fit
In short: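 CHO cells stably expressing human URAT1 long isoform–eGFP fusion, pre-incubated 1 h in chloride-containing buffer pH 7.4, then given 30 nM [14C]-uric acid with compound (0–10 μM, 0.25% DMSO) in chloride-free gluconate buffer pH 7.4. Uptake measured by scintillation proximity on Cytostar plates.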

Chain of URAT-1 transporter (Q96S37 other isoform, or with tags, fused parts or gaps): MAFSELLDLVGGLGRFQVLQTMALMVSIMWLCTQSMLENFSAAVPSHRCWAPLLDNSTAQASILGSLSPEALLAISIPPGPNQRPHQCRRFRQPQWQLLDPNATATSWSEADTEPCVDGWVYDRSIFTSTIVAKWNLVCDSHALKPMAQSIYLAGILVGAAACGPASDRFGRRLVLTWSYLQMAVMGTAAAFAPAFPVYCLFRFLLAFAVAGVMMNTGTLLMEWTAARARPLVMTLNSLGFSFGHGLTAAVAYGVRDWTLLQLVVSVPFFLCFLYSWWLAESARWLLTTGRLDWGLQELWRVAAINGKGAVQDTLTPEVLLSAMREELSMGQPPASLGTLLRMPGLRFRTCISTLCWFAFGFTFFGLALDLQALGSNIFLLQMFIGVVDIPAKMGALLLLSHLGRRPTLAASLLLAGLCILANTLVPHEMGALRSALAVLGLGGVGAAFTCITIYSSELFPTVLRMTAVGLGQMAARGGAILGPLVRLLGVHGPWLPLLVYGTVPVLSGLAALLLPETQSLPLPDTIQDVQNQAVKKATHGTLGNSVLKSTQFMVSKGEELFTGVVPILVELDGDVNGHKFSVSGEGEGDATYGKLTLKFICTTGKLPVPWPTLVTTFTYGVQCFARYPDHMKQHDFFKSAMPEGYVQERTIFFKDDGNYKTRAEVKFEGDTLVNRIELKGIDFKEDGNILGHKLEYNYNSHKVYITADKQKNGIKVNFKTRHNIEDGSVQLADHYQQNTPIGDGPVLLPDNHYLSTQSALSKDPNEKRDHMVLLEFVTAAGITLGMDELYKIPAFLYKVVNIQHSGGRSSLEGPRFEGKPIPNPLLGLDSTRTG

| SMILES | IC50 [nM] |
| --- | --- |
| CC(C)(C)c1ccc(Oc2ccc(S(=O)(=O)Nc3ccc(F)cn3)cc2C#N)c(Cl)c1 [Example 127, 4-(4-tert-butyl-2-chlorophenoxy)-3-cyano-N-(5-fluoropyridin-2-yl)benzenesulfonamide] | > 10000 |
| CC(C)(C)c1cccc(Oc2ccc(S(=O)(=O)Nc3ccc(F)cn3)cc2C#N)c1 [Example 129, 4-(3-tert-butylphenoxy)-3-cyano-N-(5-fluoropyridin-2-yl)benzenesulfonamide] | > 10000 |
| CN(C)c1cccc(Oc2ccc(S(=O)(=O)Nc3ccc(F)cn3)cc2C#N)c1 [Example 131, 3-cyano-4-[3-(dimethylamino)phenoxy]-N-(5-fluoropyridin-2-yl)benzenesulfonamide] | > 10000 |
| Cc1cc(Oc2ccc(S(=O)(=O)Nc3ccc(F)cn3)cc2C#N)c(C(C)C)cc1Cl [Example 133, 4-[4-chloro-5-methyl-2-(propan-2-yl)phenoxy]-3-cyano-N-(5-fluoropyridin-2-yl)benzenesulfonamide] | 793 |
| CCOc1cccc(Oc2ccc(S(=O)(=O)Nc3ccc(F)cn3)cc2C#N)c1 [Example 135, 3-cyano-4-(3-ethoxyphenoxy)-N-(5-fluoropyridin-2-yl)benzenesulfonamide] | > 10000 |
| CC(C)(C)c1ccc(Oc2ccc(S(=O)(=O)Nc3ccc(F)cn3)cc2C#N)cc1 [Example 137, 4-(4-tert-butylphenoxy)-3-cyano-N-(5-fluoropyridin-2-yl)benzenesulfonamide] | > 10000 |
| CCOc1cc(C)ccc1Oc1ccc(S(=O)(=O)Nc2ccc(F)cn2)cc1C#N [Example 138, 3-cyano-4-(2-ethoxy-4-methylphenoxy)-N-(5-fluoropyridin-2-yl)benzenesulfonamide] | 9210 |
| Cc1cc(Oc2ccc(S(=O)(=O)Nc3ccc(F)cn3)cc2C#N)ccc1C(C)C [Example 139, 3-cyano-N-(5-fluoropyridin-2-yl)-4-[3-methyl-4-(propan-2-yl)phenoxy]benzenesulfonamide] | > 10000 |
| COc1cc(C)ccc1Oc1ccc(S(=O)(=O)Nc2ccc(F)cn2)cc1C#N [Example 140, 3-cyano-N-(5-fluoropyridin-2-yl)-4-(2-methoxy-4-methylphenoxy)benzenesulfonamide] | > 10000 |
| COc1ccccc1Oc1ccc(S(=O)(=O)Nc2ccc(F)cn2)cc1C#N [Example 142, 3-cyano-N-(5-fluoropyridin-2-yl)-4-(2-methoxyphenoxy)benzenesulfonamide] | 75 |
| CSc1ccccc1Oc1ccc(S(=O)(=O)Nc2ccc(F)cn2)cc1C#N [Example 146, 3-cyano-N-(5-fluoropyridin-2-yl)-4-[2-(methylsulfanyl)phenoxy]benzenesulfonamide] | 506 |
| COc1ccc(Oc2ccc(S(=O)(=O)Nc3ccc(F)cn3)cc2C#N)cc1Cl [Example 148, 4-(3-chloro-4-methoxyphenoxy)-3-cyano-N-(5-fluoropyridin-2-yl)benzenesulfonamide] | 53 |
| Cc1cc(Oc2ccc(S(=O)(=O)Nc3ccc(F)cn3)cc2C#N)cc(C)c1Cl [Example 149, 4-(4-chloro-3,5-dimethylphenoxy)-3-cyano-N-(5-fluoropyridin-2-yl)benzenesulfonamide] | 95 |
| Cc1cc(C)cc(Oc2ccc(S(=O)(=O)Nc3ccc(F)cn3)cc2C#N)c1 [Example 150, 3-cyano-4-(3,5-dimethylphenoxy)-N-(5-fluoropyridin-2-yl)benzenesulfonamide] | 329 |
| CCOc1ccccc1Oc1ccc(S(=O)(=O)Nc2ccc(F)cn2)cc1C#N [Example 151, 3-cyano-4-(2-ethoxyphenoxy)-N-(5-fluoropyridin-2-yl)benzenesulfonamide] | > 10000 |
| Cc1cccc(C)c1Oc1ccc(S(=O)(=O)Nc2ccc(F)cn2)cc1C#N [Example 152, 3-cyano-4-(2,6-dimethylphenoxy)-N-(5-fluoropyridin-2-yl)benzenesulfonamide] | 50 |
| CCOc1ccc(Oc2ccc(S(=O)(=O)Nc3ccc(F)cn3)cc2C#N)cc1 [Example 153, 3-cyano-4-(4-ethoxyphenoxy)-N-(5-fluoropyridin-2-yl)benzenesulfonamide] | > 10000 |
| CCOc1ncccc1Oc1ccc(S(=O)(=O)Nc2ccc(F)cn2)cc1C#N [Example 154, 3-cyano-4-[(2-ethoxypyridin-3-yl)oxy]-N-(5-fluoropyridin-2-yl)benzenesulfonamide] | > 10000 |
| COc1ccc(C)cc1Oc1ccc(S(=O)(=O)Nc2ccc(F)cn2)cc1C#N [Example 155, 3-cyano-N-(5-fluoropyridin-2-yl)-4-(2-methoxy-5-methylphenoxy)benzenesulfonamide] | 191 |
| CC(C)Oc1ccc(F)cc1Oc1ccc(S(=O)(=O)Nc2ccc(F)cn2)cc1C#N [Example 156, 3-cyano-4-[5-fluoro-2-(propan-2-yloxy)phenoxy]-N-(5-fluoropyridin-2-yl)benzenesulfonamide] | > 10000 |

Next, values leading:

| IC50 [nM] | SMILES |
| --- | --- |
| > 10000 | Cc1ccc(Oc2ccc(S(=O)(=O)Nc3ccc(F)cn3)cc2C#N)c(F)c1F [Example 128, 3-cyano-4-(2,3-difluoro-4-methylphenoxy)-N-(5-fluoropyridin-2-yl)benzenesulfonamide] |
| 119 | N#Cc1cc(S(=O)(=O)Nc2ccc(F)cn2)ccc1Oc1cc(F)c(F)cc1F [Example 130, 3-cyano-N-(5-fluoropyridin-2-yl)-4-(2,4,5-trifluorophenoxy)benzenesulfonamide] |
| 38 | COc1ccc(Oc2ccc(S(=O)(=O)Nc3ccc(F)cn3)cc2C#N)cc1F [Example 132, 3-cyano-4-(3-fluoro-4-methoxyphenoxy)-N-(5-fluoropyridin-2-yl)benzenesulfonamide] |
| > 10000 | N#Cc1cc(S(=O)(=O)Nc2ccc(F)cn2)ccc1Oc1c(F)ccc(F)c1F [Example 134, 3-cyano-N-(5-fluoropyridin-2-yl)-4-(2,3,6-trifluorophenoxy)benzenesulfonamide] |
| > 10000 | Cc1cc(Cl)c(Oc2ccc(S(=O)(=O)Nc3ccc(F)cn3)cc2C#N)cc1C [Example 136, 4-(2-chloro-4,5-dimethylphenoxy)-3-cyano-N-(5-fluoropyridin-2-yl)benzenesulfonamide] |
| 43 | Cc1cc(Oc2ccc(S(=O)(=O)Nc3ccc(F)cn3)cc2C#N)ccc1F [Example 141, 3-cyano-4-(4-fluoro-3-methylphenoxy)-N-(5-fluoropyridin-2-yl)benzenesulfonamide] |
| 79 | COc1cc(Cl)ccc1Oc1ccc(S(=O)(=O)Nc2ccc(F)cn2)cc1C#N [Example 143, 4-(4-chloro-2-methoxyphenoxy)-3-cyano-N-(5-fluoropyridin-2-yl)benzenesulfonamide] |
| 40 | COc1cc(F)c(F)cc1Oc1ccc(S(=O)(=O)Nc2ccc(F)cn2)cc1C#N [Example 144, 3-cyano-4-(4,5-difluoro-2-methoxyphenoxy)-N-(5-fluoropyridin-2-yl)benzenesulfonamide] |
| 96 | Cc1cc(F)ccc1Oc1ccc(S(=O)(=O)Nc2ccc(F)cn2)cc1C#N [Example 145, 3-cyano-4-(4-fluoro-2-methylphenoxy)-N-(5-fluoropyridin-2-yl)benzenesulfonamide] |
| 187 | Cc1c(F)ccc(Oc2ccc(S(=O)(=O)Nc3ccc(F)cn3)cc2C#N)c1Cl [Example 147, 4-(2-chloro-4-fluoro-3-methylphenoxy)-3-cyano-N-(5-fluoropyridin-2-yl)benzenesulfonamide] |
